Data on 3 molecules can be found in patent US9492508B2, “Parathyroid hormone analogs and uses thereof” (The General Hospital Corporation, priority 2010, dated 2016).

Square brackets hold non-standard residues; d marks the D form. Peptide text beside a SMILES is read from it. hArg = N=C(N)NCCCC[C@H](N)C(=O)O; Aib = CC(C)(N)C(=O)O

For data set [1], the system named is MC3T3-E1 cells. The experiment in a line: cAMP RIA in intact MC3T3-E1 cells. In kind it is cell-based, mouse. To be noted: 30 min, room temperature, IBMX. The procedure: cAMP stimulating activity of these polypeptides was also assessed, using two different methods: a radioimmunoassay (RIA; FIG. 2) and a cAMP responsive element fused to a luciferase gene (FIG. 3). Briefly, the RIA cAMP assays were performed in intact MC3T3-E1 cells, a mouse pre-osteoblastic cell line, in 96-well plates, as described by Okazaki et al. (Proc Natl Acad Sci USA 105:16525-30, 2008). […] The cAMP contents of the HCl lysates were then determined by RIA. Data are means of six experiments, each performed in duplicate. Curves were fit to the data using Graph-Pad Prism 4.0.

In a further data set the target is T1, rat PTHR1 (RG) (Rattus norvegicus, UniProt P25961).
T1 construct: expressed in transfected cells
T1 sequence (P25961 27-591): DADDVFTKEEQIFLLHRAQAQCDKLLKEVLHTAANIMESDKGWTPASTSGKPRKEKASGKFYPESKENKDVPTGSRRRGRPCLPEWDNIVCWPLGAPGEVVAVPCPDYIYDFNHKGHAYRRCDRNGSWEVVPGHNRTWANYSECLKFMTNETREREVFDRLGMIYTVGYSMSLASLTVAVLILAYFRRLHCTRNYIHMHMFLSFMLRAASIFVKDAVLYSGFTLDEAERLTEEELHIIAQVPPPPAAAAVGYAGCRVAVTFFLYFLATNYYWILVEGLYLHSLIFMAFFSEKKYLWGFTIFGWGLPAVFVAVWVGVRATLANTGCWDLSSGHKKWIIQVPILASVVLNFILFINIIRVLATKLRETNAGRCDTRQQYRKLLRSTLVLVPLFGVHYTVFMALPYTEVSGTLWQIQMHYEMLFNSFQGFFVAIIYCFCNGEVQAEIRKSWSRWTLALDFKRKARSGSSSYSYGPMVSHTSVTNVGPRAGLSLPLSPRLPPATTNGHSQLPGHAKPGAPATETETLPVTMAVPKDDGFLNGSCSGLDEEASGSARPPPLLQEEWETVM
The experiment in a line: Competition binding, RG conformation of rat PTHR1. To be noted: RG conformation; mean of 4 experiments; read-out: Binding rat PTHR1 IC50 (Log M) RG (converted). An excerpt:
(§1) Briefly, the R^0 form of the receptor can be favored by addition of the non-hydrolyzable nucleotide analog GTPγS. The RG form can be favored, for example, by co-transfection of cells with a negative dominant Gαs subunit. […] Data are means of four experiments, each performed in duplicate. Curves were fit to the data using Graph-Pad Prism 4.0.

The test system of data set [2] is MC3T3-E1 cells. The data set can be described thus: cAMP response following ligand wash-out in MC3T3-E1 cells. The format is cell-based, mouse. To be noted: 100 nM ligand 5 min, then wash-out; FIGS. 7A, 7B. On the procedure:
Cells were treated at room temperature with vehicle or the indicated ligand (100 nM) for five minutes; for each ligand duplicate wells were used to obtain the initial (maximum cAMP values); in these wells, cells were co-incubated with ligand and IBMX. After five minutes of initial treatment, the buffer was removed, and, for the initial wells, the reactions were terminated by addition of 50 mM HCl. In the other wells, the cells were rinsed three times with buffer, and incubated in buffer for varying times, as indicated on the abscissa; after which the buffer was replaced by a buffer containing IBMX, and the cells were incubated for another five minutes. After that, the buffer was removed and the reactions were terminated by addition of 50 mM HCl. The cAMP contents of the HCl lysates were then determined by RIA.

A short description of data set [3]: Blood Ca++ responses in mice. In kind it is in vivo, mice (C57 BL/6). To be noted: 5 nmol/kg s.c., 4, 6, 8 and 24 hours. The procedure: Blood Ca^++ responses in mice were also assayed. Mice (C57 BL/6) were injected subcutaneously with either vehicle or the indicated ligand to give a final dose of 5 nmol/kg body weight, and blood was withdrawn via the tail at times after injection and assessed for Ca^++ concentration using a Bayer Rapid Lab model 348 blood analyzer. […] A similar experiment using 10 nmol/kg by intravenous injection was also conducted with similar results (FIGS. 8C and 8D).

In the next data set the target is T2, human PTHR1 (R0) (Homo sapiens, UniProt Q03431).
T2 construct: expressed in transfected cells; host or cells: COS-7 cells (membranes)
T2 sequence (Q03431 27-593): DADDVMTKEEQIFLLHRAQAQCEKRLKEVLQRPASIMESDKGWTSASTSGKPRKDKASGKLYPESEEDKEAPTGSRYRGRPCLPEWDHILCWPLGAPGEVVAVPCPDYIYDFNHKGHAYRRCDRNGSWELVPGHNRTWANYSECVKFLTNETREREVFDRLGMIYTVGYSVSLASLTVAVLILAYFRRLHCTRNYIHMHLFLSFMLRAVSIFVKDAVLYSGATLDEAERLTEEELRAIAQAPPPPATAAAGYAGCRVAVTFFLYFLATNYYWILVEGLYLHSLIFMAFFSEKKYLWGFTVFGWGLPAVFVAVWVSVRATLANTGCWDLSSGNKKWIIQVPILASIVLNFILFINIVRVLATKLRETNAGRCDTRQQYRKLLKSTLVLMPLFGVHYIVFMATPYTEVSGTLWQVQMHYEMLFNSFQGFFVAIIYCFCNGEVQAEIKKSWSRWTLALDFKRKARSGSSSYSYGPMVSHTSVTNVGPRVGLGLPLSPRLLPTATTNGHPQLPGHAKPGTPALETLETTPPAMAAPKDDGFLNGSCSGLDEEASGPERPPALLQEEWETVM
The data set can be described thus: Competition binding, R0 conformation of human PTHR1 (COS-7 membranes, 125I-PTH(1-34) tracer, GTPγS). The procedure: as §1
Here, competition binding assays for the R^0 and RG PTHR1 conformation were performed in membranes prepared from transfected COS-7 cells, as described by Dean et al., Mol Endocrinol 22:156-66, 2008. Data are means of three experiments, each performed in duplicate. Curves were fit to the data using Graph-Pad Prism 4.0.

A short description of another data set: in vivo. To be noted: Crl:CD(SD), rat, iv, 24.3 nmol/kg.
For data set [4] the following is noted: rat, in vivo, iv, 24.3 nmol/kg.
In a further data set the target is T3, PD PTH receptor (Mus musculus, UniProt P41593, S489A/S491A/S492A/S493A/S495A/S501A/S504A).
T3 construct: endogenous in cells; host or cells: knock-in mice (in vivo)
T3 sequence (P41593 27-591 S489A/S491A/S492A/S493A/S495A/S501A/S504A): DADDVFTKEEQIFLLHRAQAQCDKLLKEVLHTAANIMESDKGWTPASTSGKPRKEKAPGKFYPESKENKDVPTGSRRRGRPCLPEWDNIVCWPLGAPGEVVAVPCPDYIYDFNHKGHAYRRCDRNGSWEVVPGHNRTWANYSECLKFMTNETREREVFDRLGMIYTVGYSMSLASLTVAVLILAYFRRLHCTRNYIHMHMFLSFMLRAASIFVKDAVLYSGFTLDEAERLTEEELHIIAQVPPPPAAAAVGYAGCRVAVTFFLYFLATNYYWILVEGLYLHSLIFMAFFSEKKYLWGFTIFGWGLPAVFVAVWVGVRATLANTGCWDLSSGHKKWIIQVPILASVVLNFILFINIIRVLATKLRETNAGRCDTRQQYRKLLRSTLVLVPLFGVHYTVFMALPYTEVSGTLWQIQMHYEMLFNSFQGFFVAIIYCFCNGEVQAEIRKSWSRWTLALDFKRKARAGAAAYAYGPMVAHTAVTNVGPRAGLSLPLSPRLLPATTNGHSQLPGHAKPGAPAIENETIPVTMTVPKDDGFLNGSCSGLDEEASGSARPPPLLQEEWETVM
The data set can be described thus: Blood calcium and cAMP in knock-in mice with phosphorylation-deficient (PD) PTH receptor vs wild-type. In kind it is in vivo. The procedure:
The activity of SP-PTH-AAK (SEQ ID NO:4) was tested in “knock-in” mice that express a PD PTH receptor in place of the wild-type PTH receptor (Bounoutas et al., Endocrinology 147: 4674, 2006).
Blood cAMP levels were also compared between the two types of mice.

Broadly, the EC50 is the concentration at which the effect is half-maximal. By IC50 is commonly meant the concentration that gives 50% inhibition. For `CC[C@H](C)[C@H](NC(=O)[C@H](CCC(=O)O)NC(=O)[C@H](C)NC(=O)[C@@H](NC(=O)[C@H](Cc1c[nH]cn1)NC(=O)[C@@H](NC(=O)[C@H](CCC(=O)O)NC(=O)[C@H](C)NC(=O)[C@@H](NC(=O)[C@H](CC(C)C)NC(=O)[C@H](Cc1c[nH]cn1)NC(=O)[C@H](Cc1c[nH]cn1)NC(=O)[C@H](CC(C)C)NC(=O)[C@H](Cc1ccccc1)NC(=O)[C@H](Cc1ccccc1)NC(=O)[C@H](CCCNC(=N)N)NC(=O)[C@H](CCCNC(=N)N)NC(=O)[C@H](CCCNC(=N)N)NC(=O)[C@H](CC(C)C)NC(=O)[C@H](CC(=O)O)NC(=O)[C@H](CCC(N)=O)NC(=O)[C@@H](NC(=O)[C@H](Cc1c[nH]c2ccccc12)NC(=O)[C@H](CCCCN)NC(=O)[C@H](C)NC(=O)[C@H](CCCCNC(=N)N)NC(=O)[C@H](CCC(N)=O)NC(=O)[C@H](Cc1c[nH]cn1)NC(=O)[C@H](CCSC)NC(=O)[C@H](CC(C)C)NC(=O)[C@H](CCC(N)=O)NC(=O)[C@@H](NC(=O)[C@H](CCC(=O)O)NC(=O)C(C)(C)NC(=O)[C@@H](NC(=O)[C@H](C)N)C(C)C)[C@@H](C)CC)[C@@H](C)CC)[C@@H](C)CC)[C@@H](C)CC)[C@@H](C)O)C(N)=O` [AIB-SP-PTH, [Ala^1,12,Aib^3,Gln^10,Har^11,Trp^14]PTH(1-14)/PTHrP(15-36)] (H-AV[Aib]EIQLMHQ[hArg]AKWIQDLRRRFFLHHLIAEIHTAEI-NH2; N-terminus assumed), in the data set on MC3T3-E1 cells [1], a half-maximal effect (EC50) was put at 0.044 nM and the “cAMP MC3T3-E1 cells Emax (pmole/well)” value was determined as 62.1 ± 13.3 pmole/well. The “cAMP MC3T3-E1 cells EC50 (Log M)” value with MC3T3-E1 cells [1] (6 experiments) was −10.4 ± 0.1 Log M. In addition, the IC50 at rat PTHR1 (RG) is 0.38 nM. In addition, the “cAMP-stimulating activity after ligand wash-out” value in the data set on MC3T3-E1 cells [2] is “maintained cAMP-stimulating activity for longer periods of time than PTH(1-34)”. Moreover, the “blood calcium levels at later time points vs PTH(1-34) or vehicle” value in data set [3] is reported as “increased”. In addition, the “R0 binding at human PTH receptor as compared to PTH(1-34)” value at human PTHR1 (R0) (FIG. 5A) was “enhanced R^0 binding”. For the same molecule, on human PTHR1 (R0) (R0 conformation, mean of 3 experiments, read-out: Binding human PTHR1 IC50 (Log M) R0 (converted)), the half-inhibitory concentration (IC50) is 1.82 nM.
In general, MRT refers to the average time that molecules of a dose stay in the body. Broadly, the Vd is the apparent volume that relates the amount in the body to the concentration in plasma or blood. High values mean extensive tissue distribution, low ones confinement near the circulation. In general, clearance refers to the volume of plasma or blood freed of the substance per unit of time. Higher therefore signals efficient removal. What is called half-life is the time in which the quantity being followed falls by half. Regarding `CC[C@H](C)[C@H](NC(=O)[C@H](CCC(=O)O)NC(=O)[C@H](CO)NC(=O)[C@@H](NC(=O)[C@@H](N)CO)C(C)C)C(=O)N[C@@H](CCC(N)=O)C(=O)N[C@@H](CC(C)C)C(=O)N[C@@H](CCSC)C(=O)N[C@@H](Cc1cnc[nH]1)C(=O)N[C@@H](CC(N)=O)C(=O)N[C@@H](CC(C)C)C(=O)NCC(=O)N[C@@H](CCCCN)C(=O)N[C@@H](Cc1cnc[nH]1)C(=O)N[C@@H](CC(C)C)C(=O)N[C@@H](CC(N)=O)C(=O)N[C@@H](CO)C(=O)N[C@@H](CCSC)C(=O)N[C@@H](CCC(=O)O)C(=O)N[C@@H](CCCN=C(N)N)C(=O)N[C@H](C(=O)N[C@@H](CCC(=O)O)C(=O)N[C@@H](Cc1c[nH]c2ccccc12)C(=O)N[C@@H](CC(C)C)C(=O)N[C@@H](CCCN=C(N)N)C(=O)N[C@@H](CCCCN)C(=O)N[C@@H](CCCCN)C(=O)N[C@@H](CC(C)C)C(=O)N[C@@H](CCC(N)=O)C(=O)N[C@@H](CC(=O)O)C(=O)N[C@H](C(=O)N[C@@H](Cc1cnc[nH]1)C(=O)N[C@@H](CC(N)=O)C(=O)N[C@@H](Cc1ccccc1)C(=O)O)C(C)C)C(C)C` [PTH(1-34), hPTH(1-34)OH, reference compound], in the data set “in vivo”, the mean residence time MRT is 11.4 min, the volume of distribution (Vd) is 0.211 L/kg, the clearance was determined as 18.5 mL/min/kg and the half-life worked out at 7.78 min. In data set [4], the AUCinf was found to be 1315 pmol·min/mL and the AUClast is 1308 pmol·min/mL.
In the case of M-PTH(1-28), the “increases in blood calcium levels in PD mice as compared to wild-type mice” value on PD PTH receptor (FIGS. 17A, 17B) is given as “either reduced or eliminated”. Moreover, the “blood cAMP levels in PD mice as compared to wild-type mice” value at PD PTH receptor (FIGS. 18A, 18B) is “increased in magnitude and prolonged in duration”.
